Test results as given in PubChem BioAssay AID1645848.
Converted amounts (≈) assume the structure as drawn.

Conditions: buffer; pH 7.4; 6.0 h; 150.0 µM

Row | Structure (SMILES) | solubility kinetic
1 | O=C(Nc1ccc(Oc2ccnc3[nH]ccc23)c(F)c1)c1cccn(-c2ccc(F)cc2)c1=O | < 1 µg/mL
2 | Cc1cccc(-c2[nH]c(C(C)(C)C)nc2-c2ccc3nccnc3c2)n1 | > 51 µg/mL
3 | O=C(Nc1nc(-c2ccccc2)cs1)c1ccncc1NS(=O)(=O)c1ccc(N2CCCC2=O)cc1 | 56.9 µg/mL (≈ 110 µM)
4 | CC(C)(C)C(=O)C(Oc1ccc(Cl)cc1)n1ccnc1 (centres undefined) | 29 µg/mL (≈ 99.1 µM)
5 | CC(C)(C)c1ccc(SC2=NS(=O)(=O)c3ccccc32)cc1 | < 1 µg/mL
6 | O=C1CCCC2=C1C(c1ccccc1Br)N=C(Nc1nc3ccccc3o1)N2 (centres undefined) | < 1 µg/mL
7 | COC(=O)c1ccc(NS(=O)(=O)c2c(C)nc3sccn3c2=O)cc1 | > 56 µg/mL
8 | Cc1ccc(S(=O)(=O)Nc2ccccc2C(=O)Nc2nccs2)cc1 | 7.17 µg/mL (≈ 19.2 µM)
9 | Cc1ccc(S(=O)(=O)Nc2ccccc2C(=O)Nc2nc(-c3ccccc3)co2)cc1 | < 1 µg/mL
10 | CCOc1ccc(CCNC(=O)c2cccc(C(=O)c3ccccc3)c2)cc1OCC | 3.12 µg/mL (≈ 7.47 µM)
11 | CCCCN(CC)CCCNC(=O)c1ccc2c(c1)N(Cc1ccc(C)cc1)C(=O)c1ccccc1S2 | > 76 µg/mL
12 | Cc1cc(NS(=O)(=O)c2ccc(NC(=O)c3oc4ccccc4c3C)cc2)nc(C)n1 | < 1 µg/mL
13 | O=S(=O)(Nc1ccc(-c2cccnc2)c2cccnc12)c1cccc(C(F)(F)F)c1 | < 1 µg/mL
14 | CC(Nc1ncnc2c1cnn2-c1cccc(Cl)c1)c1ccccc1 (centres undefined) | < 1 µg/mL
15 | CNC(=O)c1cc(Oc2ccc(NC(=O)Nc3cc(C(C)(C)C)nn3-c3ccc4ncccc4c3)c(F)c2)ccn1 | 3.5 µg/mL (≈ 6.32 µM)
16 | Cc1noc(C)c1-c1ccc(Nc2nc(-c3ccncc3)nc3ccccc23)cc1F | < 1 µg/mL
17 | CCN(c1ccccc1)S(=O)(=O)c1cc(C(=O)Nc2ccc(Br)cc2)ccc1F | < 1 µg/mL
18 | CN(C)c1ccc2cc(C(=O)N[C@@H](CCCN=C(N)CCl)C(=O)NCc3ccccc3)ccc2c1 | 52.4 µg/mL (≈ 106 µM)
19 | O=C1Nc2ccccc2/C1=C\c1ccc(O)cc1 | 0.999 µg/mL (≈ 4.21 µM)
20 | Cc1ccc2c(c1)c(=O)c1ccccc1n2CCCC(=O)Nc1cc(Cl)ccc1C | < 1 µg/mL
21 | CCC(CC)c1cc([C@H]2CN3CC[C@H]2C[C@@H]3CNC(C)=O)nc(-c2ccncc2)n1 | > 60 µg/mL
22 | NC(=O)C1CCN(c2nc(-c3ccccc3)cs2)CC1 | > 42 µg/mL
23 | FC(F)(F)Oc1cccc(Nc2nc(-c3ccncc3)nc3ccccc23)c1 | < 1 µg/mL
24 | C#CC1(O)CCC2C3CCC4=C/C(=N/OCC(=O)NCC(=O)NC(C(=O)O)C(C)C)CC[C@]4(C)C3CC[C@@]21C (some centres undefined) | > 80 µg/mL
25 | Cc1ccccc1-c1nc(NCc2ccc(-c3cccnc3)cc2)c2ccccc2n1 | < 1 µg/mL

Row | Structure (SMILES) | solubility kinetic
26 | C#Cc1ccc(NC(=O)c2cnn3c(C)cc(C)nc23)cc1 | < 1 µg/mL
27 | O=C(CNC12CC3CC(CC(C3)C1)C2)c1ccc(Cl)cc1 | 34.6 µg/mL (≈ 114 µM)
28 | O=C(Nc1ccc(S(=O)(=O)Nc2nccs2)cc1)c1ccnc(-c2ccccc2)c1 | 15.6 µg/mL (≈ 35.8 µM)
29 | COc1cccc(CNc2ccc(S(=O)(=O)Nc3ccc(-c4ccccc4)cc3)cc2)c1O | < 1 µg/mL
30 | FC(F)(F)c1ccccc1-c1nc(NCc2ccc(-c3cccnc3)cc2)c2ccccc2n1 | < 1 µg/mL
31 | CCOc1ccc(CCNC(=O)c2ccc(C(=O)c3ccccc3)cc2)cc1OCC | < 1 µg/mL
32 | O=S(=O)(Nc1nccs1)c1ccc(NCc2cc(Cl)ccc2O)cc1 | 37.2 µg/mL (≈ 94 µM)
33 | CCO.Nc1nc(N)c2cc(Sc3ccc4ccccc4c3)ccc2n1 | < 1 µg/mL
34 | CCOc1ccc(CCNC(=O)c2cc3sccc3n2Cc2ccc(F)cc2F)cc1OCC | < 1 µg/mL
35 | CCOc1ccc(CCNC(=O)c2cc3ccccc3n2C)cc1OCC | 1.63 µg/mL (≈ 4.44 µM)
36 | COc1c(O)cc2c(c1OC)-c1ccc(SC)c(=O)cc1C(NC(C)=O)CC2 (centres undefined) | > 59 µg/mL
37 | CCn1cc(CNC(=O)c2cc(-c3ccc(C)cc3)nc3ccc(Br)cc23)c(C)n1 | < 1 µg/mL
38 | c1ccc2c(Nc3nccs3)nc(-c3ccncc3)nc2c1 | < 1 µg/mL
39 | CCN1C(=O)c2ccccc2[S@](=O)c2ccc(C(=O)NCc3ccc(F)cc3)cc21 | 18.1 µg/mL (≈ 42.9 µM)
40 | COc1c2c(c3c(c1CCC(=O)O)OC(C)(C)C=C3)OC(C)(C)C=C2 | > 51 µg/mL
41 | O=C(Nc1nc(-c2ccccc2)cs1)c1ccncc1NS(=O)(=O)c1c(F)cc(F)cc1F | 58 µg/mL (≈ 118 µM)
42 | Fc1cc(Nc2nc(-c3ccncc3)nc3ccccc23)ccc1C(F)(F)F | < 1 µg/mL
43 | O=[S+]([O-])(Nc1nccs1)c1ccc(NCc2cc(F)cc(Cl)c2O)cc1 | 18.5 µg/mL (≈ 44.7 µM)
44 | Cc1ccc(-c2cc(C(=O)Nc3ccc(S(=O)(=O)N(C)C)cc3)c3ccccc3n2)cc1C | < 1 µg/mL
45 | Oc1cccc2nc3ccccc3nc12 | > 29 µg/mL
46 | CCN(CC)S(=O)(=O)c1cccc(C(=O)Nc2ccc(C#N)cc2)c1 | 10.2 µg/mL (≈ 28.5 µM)
47 | O=C(O)c1ccccc1C(=O)Nc1ccc(-c2ccccc2)cc1 | > 47 µg/mL
48 | CCc1nnc(NC(=O)c2nc(S(=O)(=O)Cc3ccc(C)cc3)ncc2Cl)s1 | > 65 µg/mL
49 | Cc1ccc(-c2cc(C(=O)Nc3ccc(S(C)(=O)=O)cc3)c3ccccc3n2)cc1C | < 1 µg/mL
50 | Cc1ccc(S(=O)(=O)Nc2cnccc2C(=O)NCCc2ccccc2)cc1 | > 58 µg/mL

Now from value to compound:

Row | solubility kinetic | Structure (SMILES)
51 | 1.01 µg/mL (≈ 2.26 µM) | CC1=NN(c2ccc(C(=O)O)cc2)C(=O)/C1=C/c1ccc(-c2cc(C)c(C)cc2[N+](=O)[O-])o1
52 | 39.5 µg/mL (≈ 90.1 µM) | COCC(C)NCc1cc2ccc(OC)cc2nc1N1CCN(c2ccc(F)cc2)CC1 (centres undefined)
53 | > 55 µg/mL | O=C(c1ccc2c(c1)ncn2-c1ccc(C(F)(F)F)cc1)N1CCCCC1
54 | < 1 µg/mL | COc1cc(-c2nc(Nc3ccc(F)c(F)c3)c3ccccc3n2)ccn1
55 | < 1 µg/mL | O=C(Nc1ccccc1)C1CCN(c2ncc(-c3ccc4c(c3)OCCCO4)s2)CC1
56 | > 65 µg/mL | CCN1CCN(c2ccc(Nc3ccc(-c4ccc(C(N)=O)cc4)n4ncnc34)cc2)CC1
57 | < 1 µg/mL | COc1cc(-c2nc(-c3ccccc3)c(-c3cccs3)[nH]2)cc(OC)c1O
58 | > 40 µg/mL | NC1CCN(C(=O)C2CCCN(c3nc(-c4ccccc4)nc4c3CCC4)C2)CC1 (centres undefined)
59 | 13.4 µg/mL (≈ 33.6 µM) | CCCN1CNc2c(c(=O)[nH]c(=S)n2CCc2cccc(Cl)c2Cl)C1
60 | < 1 µg/mL | Cc1ccccc1C(=O)N1CCc2cc(-c3nc(NC(=O)Cc4ccc5c(c4)OCO5)sc3C)ccc21
61 | < 1 µg/mL | CC(=O)OCCN1C(=O)c2c(C)nc3ccc(S(=O)(=O)N4CCOCC4)cc3c2C1=O
62 | > 57 µg/mL | COc1ccc2c3c([nH]c2c1)C1CC2C(CC(O)C(OC)C2CO)CN1CC3 (centres undefined)
63 | 11.6 µg/mL (≈ 32.6 µM) | NC(=O)C1CCN(c2ncc(-c3cccc(N4CCCC4)c3)s2)CC1
64 | 18.1 µg/mL (≈ 44.4 µM) | CN(C)[C@@H]1CCN(c2cccc(Nc3nn4c(=O)c5ccccc5nc4s3)c2)C1
65 | > 48 µg/mL | COc1ccc(CNC(=O)Cn2nc3c(cc2=O)CCCC3)cc1
66 | < 1 µg/mL | CC(=O)N1CCc2cc(-c3nc(NC(=O)Cc4ccc5c(c4)OCO5)sc3C)ccc21
67 | < 1 µg/mL | COc1cc2nccc(Oc3ccc(NC(=O)Nc4cc(C)on4)c(Cl)c3)c2cc1OC
68 | < 1 µg/mL | COc1ccc(N2Cc3cccc(C(=O)Nc4ccc(C(C)C)cc4)c3C2=O)cc1
69 | 4.11 µg/mL (≈ 11.2 µM) | C[C@H]1CN(C(=O)Nc2ccc(F)cc2)C[C@@H]1c1nc(-c2ccccc2)no1
70 | 1.06 µg/mL (≈ 2.24 µM) | CC1CCC(NC(=O)c2ccc3c(c2)N(Cc2ccccc2F)C(=O)c2ccccc2S3)CC1 (centres undefined)
71 | > 60 µg/mL | N[C@@H]1CN(c2c(F)cc3c(=O)c(C(=O)O)cn([C@@H]4C[C@@H]4F)c3c2Cl)CC12CC2
72 | > 62 µg/mL | CCc1oc2ccccc2c1C(=O)c1cc(Br)c(O)c(Br)c1
73 | 38.6 µg/mL (≈ 109 µM) | CCC(C)N(C)C(=O)c1cc2ccccc2c(-c2ccccc2Cl)n1 (centres undefined)
74 | 9.32 µg/mL (≈ 29.2 µM) | Nc1c(C(=O)N2CCCCC2)sc(=S)n1-c1ccccc1
75 | 31.9 µg/mL (≈ 91.9 µM) | COc1ccc(-c2ccc3ncc(Nc4ccncc4)n3n2)cc1OC

Row | solubility kinetic | Structure (SMILES)
76 | < 1 µg/mL | CCC(=O)NC(c1ccc(OC)cc1)c1cc(Cl)c2cccnc2c1O (centres undefined)
77 | < 1 µg/mL | COc1ccc(C(=O)N2CCC3(CC2)CN(c2cccc(-c4ccccc4)c2)C3)cc1
78 | 4.11 µg/mL (≈ 9.67 µM) | Cc1ccnc(NC(=S)N2CCN(c3ccc(C(F)(F)F)cc3[N+](=O)[O-])CC2)c1
79 | < 1 µg/mL | COc1ccccc1Nc1cnc2ccc(-c3ccc(OC)c(OC)c3)nn12
80 | < 1 µg/mL | CCCCn1cc2c(c1-c1ccc(Br)cc1)c(=O)n(C)c(=O)n2C
81 | 3.88 µg/mL (≈ 10.2 µM) | Cc1ccnc(NC(=S)N2CCN(c3cccc(C(F)(F)F)n3)CC2)c1
82 | > 58 µg/mL | COc1cccc(CNc2ccc(S(=O)(=O)Nc3nccs3)cc2)c1O
83 | > 33 µg/mL | CN(C)CC(=O)NC1CCCc2c1cnn2-c1ccc(F)cc1F (centres undefined)
84 | 4.86 µg/mL (≈ 17.5 µM) | O=c1c2c([nH]c3ccc(Br)cc13)CCCC2
85 | 13.4 µg/mL (≈ 40.3 µM) | CC(C)N(CCC(=O)c1ccc2ccccc2c1)Cc1ccccc1
86 | 14.8 µg/mL (≈ 36.3 µM) | Cc1cccc(N2CCN(C(=O)c3ccc4c(c3)C(O)CCCCCN4C)CC2)c1 (centres undefined)
87 | < 1 µg/mL | COc1ccc(-c2ccc(Nc3nc(-c4ccncc4)nc4ccccc34)cc2F)cc1F
88 | < 1 µg/mL | COc1cccc(CC(=O)Nc2nc(-c3ccc4c(c3)CCN4C(=O)c3ccccc3C)c(C)s2)c1
89 | < 1 µg/mL | COc1ccc(-c2cc(C)nc3c(-c4ccc(OC)c(OC)c4)c(C)nn23)cc1
90 | > 58 µg/mL | O=C(/C=C/c1cccnc1)NCCCCC1CCN(C(=O)c2ccccc2)CC1
91 | > 44 µg/mL | Cc1ccc(CSCc2ccc(C(=O)NC3CC3)o2)cc1
92 | < 1 µg/mL | CC(C)(C)OC(=O)N[C@@H](Cc1ccc(OS(=O)(=O)c2cccc3cnccc23)cc1)C(=O)N1CCCN(C(=O)OC(C)(C)C)CC1
93 | < 1 µg/mL | Cc1sc(NC(=O)Cc2ccc3c(c2)OCO3)nc1-c1ccc2c(c1)CCN2C(=O)C1CCCCC1
94 | 3.75 µg/mL (≈ 7.77 µM) | O=C(Nc1ccc(N2CCN(C(=O)c3ccccc3F)CC2)cc1)c1cncc(Br)c1
95 | > 32 µg/mL | Cc1ccc(C)n1-c1cccc(C(=O)O)c1
96 | < 1 µg/mL | O=C(Nc1ccccc1)C1CC(=O)N(c2n[nH]c3cc(Br)ccc23)C1 (centres undefined)
97 | < 1 µg/mL | COc1cc2nccc(Oc3ccc(NC(=O)C4(C(=O)Nc5ccc(F)cc5)CC4)cc3)c2cc1OC
98 | < 1 µg/mL | COC(=O)CSc1nc(-c2ccccc2)cc(-c2ccco2)c1C#N
99 | < 1 µg/mL | Cc1ccccc1C(=O)N1CCc2cc(-c3csc(NC(=O)Cc4ccc5c(c4)OCO5)n3)ccc21
